# Values quoted from earlier work as cited in patent US20070010756A1 (priority 2005, published 2007).
# Test system: patients
# Details: in vivo
compound,measurement,value
CC(C)c1cccc(C(C)C)c1O [propofol],BIS value at which 50 percent of the patients had lost consciousness (95 percent confidence interval),61 (59-62)
same,Response Entropy (RE) value at which 50 percent of the patients had lost consciousness (95 percent confidence interval),70 (68-72)
same,State Entropy (SE) value at which 50 percent of the patients had lost consciousness (95 percent confidence interval),64 (62-66)
